Reference: ChEMBL document CHEMBL6074694, “4-Oxo-β-lactams as Covalent Inhibitors of the Mitochondrial Intramembrane Protease PARL” (ACS Med Chem Lett, 2024)
Calls of active or inactive are those of the source. The rule behind the calls is not given here.

Columns and labels:
[1] = Inhibition of recombinant human RHBDL2 using Ac-PVAKA-7-amino-4-methylcoumarin-3-(N-octyl)-acetamide as substrate preincubated for 30 mins followed by substrate addition and measured after 20 mins by plate reader assay
[2] = biological target: T1, Presenilin-associated rhomboid-like protein, mitochondrial (Homo sapiens, UniProt Q9H300); assay: Inhibition of PARL (unknown origin) using Ac-RRRAVFKLA-aminomethyl coumarin as substrate preincubated for 30 mins followed by substrate addition and measured after 20 mins by plate reader assay
T1 sequence (Q9H300 whole entry): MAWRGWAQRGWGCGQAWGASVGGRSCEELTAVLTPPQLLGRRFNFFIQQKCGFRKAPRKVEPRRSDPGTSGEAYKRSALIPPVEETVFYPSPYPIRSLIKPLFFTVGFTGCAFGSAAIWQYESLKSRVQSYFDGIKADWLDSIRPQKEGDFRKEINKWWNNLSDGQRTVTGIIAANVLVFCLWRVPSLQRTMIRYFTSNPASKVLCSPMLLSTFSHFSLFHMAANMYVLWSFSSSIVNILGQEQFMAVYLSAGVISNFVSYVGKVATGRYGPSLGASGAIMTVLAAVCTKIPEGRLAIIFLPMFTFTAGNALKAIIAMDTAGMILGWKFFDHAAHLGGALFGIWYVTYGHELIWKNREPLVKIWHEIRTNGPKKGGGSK

HEK293-T-REx = assay: (§1) Inhibition of FLAG-tagged PARL (unknown origin) overexpressed in HEK293-T-REx cells assessed as reduction in substrate cleavage using PGAM5-Myc as substrate incubated for overnight by densitometry assay; type: cell-based; conditions: Homo sapiens
[3] = as §1; type: cell-based, Homo sapiens

Row | SMILES | IC50 [2] | other results
1 | CCC1(CC)C(=O)N(c2ccc(CN3CCN(c4ccc(Br)cc4)CC3)cc2)C1=O | 490 nM | IC50 [1]: 21000 nM
2 | CCC1(CC)C(=O)N(c2cccc(CN3CCN(Cc4ccc(OC)cc4)CC3)c2)C1=O | 1930 nM | 
3 | CCC1(CC)C(=O)N(c2ccc(CN3CCc4cc5c(cc4C3)OCO5)cc2)C1=O | 560 nM | 
4 | CCC1(Cc2ccccc2)C(=O)N(OS(=O)(=O)c2ccc(C)cc2)C1=O |  | inhibition (HEK293-T-REx): inactive
5 | CCC1(CC)C(=O)N(Cc2ccc(C(=O)OCc3ccccc3)cc2)C1=O | 160 nM | EC50 [3]: 220 nM
6 | CCC1(CC)C(=O)N(c2cccc(CN3CCN(c4ccc(Br)cc4)CC3)c2)C1=O | 890 nM | 
7 | CCC1(CC)C(=O)N(c2cccc(CN3CCN(Cc4ccc(Br)cc4)CC3)c2)C1=O | 1000 nM | 
8 | CCC1(CC)C(=O)N(c2ccc(CN3CCN(c4ccc(OC)cc4)CC3)cc2)C1=O | 380 nM | 
9 | CCC1(CC)C(=O)N(c2ccc(CN3CCN(Cc4ccc(Br)cc4)CC3)cc2)C1=O | 1430 nM | IC50 [1]: 1900 nM
10 | CCC1(CC)C(=O)N(c2ccc(CN3CCN(c4ccnc5ccc(Br)cc45)CC3)cc2)C1=O | 260 nM | IC50 [1]: 35000 nM
11 | CCC1(CC)C(=O)N(c2ccc(CN3CCN(c4cc(C)nc5ccc(Br)cc45)CC3)cc2)C1=O | 480 nM | 
12 | CCC1(CC)C(=O)N(c2ccc(CN(Cc3ccccc3)Cc3ccccc3)cc2)C1=O | 150 nM | EC50 [3]: 300 nM
13 | CCC1(CC)C(=O)N(c2ccc(CN3CCN(C(c4ccc(F)cc4)c4ccc(F)cc4)CC3)cc2)C1=O | 2600 nM | 
